From ChEMBL document CHEMBL3507680, “University of Dundee, Gates Library screen for HepG2 cell viability”

Assay: Human HepG2 cell viability assay in 384 well format
Assay type: toxicity, cell-based
Parameters: dose 125 nL, time 70.5 hour; concentration not given beside the values
Settings: HepG2 cells, read-out: Inhibition

| SMILES | cytotoxicity at 70.5 h [%] |
| --- | --- |
| CC(=O)c1ccc(NC(=O)NC(C)c2ccc3c(c2)CC(=O)N3)cc1 (stereo unspecified) | 2.82 |
| CCc1nsc(N2CCN(C(=O)COc3ccccc3)CC2)n1 | -6.06 |
| O=C(NCC1(O)CCSCC1)c1ccoc1 | -1.38 |
| CC(C)c1nc(C2CCCN2C(=O)c2ccc3nncn3c2)no1 (stereo unspecified) | 2.23 |
| CCc1nsc(N2CCN(CC(=O)NCc3cccnc3)CC2)n1 | -5.18 |
| COc1ccc(Cl)cc1NC(=O)CCNc1ccc(C#N)cn1 | -6.33 |
| COc1cccc(C(O)CNC(=O)CC2CCCCC2)c1 (stereo unspecified) | -8.34 |
| COc1c(F)cc(NC(=O)NCc2nncn2C2CC2)cc1F | 0.912 |
| O=C1CN(CCCNC(=O)Nc2ccccn2)CCN1 | 1.68 |
| CC(C)(C)NC(=O)CN1CCCN(Cc2cc(C#N)ccc2F)CC1 | 4.54 |
| Cc1nsc(N2CCN(CC(=O)NCc3ccc(F)cc3)CC2)n1 | -0.931 |
| CN(Cc1cnn(C)c1)S(=O)(=O)N1CCCCC1 | -5.36 |
| O=C1OCCN1CCN1CCCN(Cc2ccccc2F)CC1 | -4.26 |
| CCc1nsc(N2CCCN(C(=O)COc3ccccc3)CC2)n1 | -3.48 |
| COc1cccc(C(=O)NCc2ccccc2S(=O)(=O)N(C)C)c1 | -4.93 |
| COc1cccc(C(=O)NCc2ccccc2S(=O)(=O)N(C)CCO)c1 | -4.69 |
| COCCN1CCN(CC(O)c2cc(OC)ccc2OC)CC1 (stereo unspecified) | -6.61 |
| O=C(NCCSC1CCCC1)c1ccc(F)cc1F | -5.35 |
| NC(=O)N1CCCC(C(=O)NCc2ccccc2OC(F)(F)F)C1 (stereo unspecified) | -9.4 |
| CCc1ncncc1C(=O)NCCNC(=O)c1ccc(C)c(F)c1 | -8.42 |
| COC(=O)CNc1cc(C(=O)NCC(F)(F)F)cc(F)c1C | -2.26 |
| COC(=O)CCNC(=O)c1ccc(NC(=O)N(C)CC(C)(C)C)cc1 | -6.05 |
| O=C(CCc1ccccc1)N1CCN(C(=O)c2ccc[nH]2)CC1 | -12.3 |
| N#Cc1ccc(N2CCCC2Cn2cncn2)nc1 (stereo unspecified) | -6.25 |
| CC(C)NC(=O)NCc1ccccc1NS(=O)(=O)c1ccccc1 | 12.7 |

| SMILES | cytotoxicity at 70.5 h [%] |
| --- | --- |
| CC(C)c1nccn1C1CCCN(C(=O)c2ccn(C)c(=O)c2)C1 (stereo unspecified) | -4.13 |
| CN(CCCNS(=O)(=O)N1CCC2(CC1)OCCO2)c1ccccc1 | 22.7 |
| CN(CCc1ccccn1)Cc1nccn1Cc1ccccc1 | 11.8 |
| CCNC(=O)NC(=O)CNC(C)(CC)c1nccs1 (stereo unspecified) | -1.38 |
| CC(CC(=O)N1CCC(c2nnc3n2CCC3)CC1)n1cccc1 (stereo unspecified) | 10.7 |
| CC(=O)c1c(F)cccc1NC1CCN(C(=O)C2CCCCC2)CC1 | -2.39 |
| O=C(NCCSC1CCCC1)c1c(F)cccc1F | -6.07 |
| COc1ccc(CNC(=O)N2CCOCC2C2CC2)c(C)c1 (stereo unspecified) | -6.07 |
| CN(Cc1ccccc1OC(F)(F)F)C(=O)C1CC1 | -7.05 |
| Cc1ccccc1-n1cnnc1SCC1CCCCO1 (stereo unspecified) | -9.11 |
| CCOC(=O)C1CCN(Cc2c(O)ccc3oc4c(c23)CCCC4)CC1 | 11.2 |
| Cc1nn(CN(CC(C)C)C2CC2)c(=O)c2noc(C)c12 | 14.5 |
| O=C(NCC(O)COc1ccccc1)C1(c2ccc(F)cc2)CC1 (stereo unspecified) | -10.3 |
| O=C(NCC(O)COc1cccc(F)c1)c1ccoc1 (stereo unspecified) | -13.2 |
| CC1COc2ccccc2N1C(=O)c1ccc(=O)n(C)c1 (stereo unspecified) | 22.1 |
| CN(C)C(=O)C(C)(C)c1ccc2c(c1)OCCO2 | -5.25 |
| O=S(=O)(NCCCN1CC=CC1)c1cncc(Cl)c1 | 29.6 |
| CC(C)(C)Cc1nnc(NCc2ccsc2)o1 | 28.5 |
| COc1ccnc(N2CCN(C(C)c3nc(C)no3)CC2)n1 (stereo unspecified) | 4.57 |
| CCn1ncc2c1CCCC2NCc1csc(C(C)C)n1 (stereo unspecified) | 0.0472 |
| CCCc1cc(N2CCCC2Cn2nc(C)nc2C)n2ncnc2n1 (stereo unspecified) | -0.261 |
| CCS(=O)(=O)NCC(=O)N1CC2(CCCC2)c2c(F)cccc21 | -1.86 |
| COc1cc(F)ccc1N(C)Cc1ccncc1 | -1.33 |
| COc1ccc(N(C(=O)Cc2ccc(C)nc2)C(C)C)cc1F | -5.23 |
| COc1ccc2cc(CN(C)C(C)c3nc(C(C)(C)C)no3)ccc2c1 (stereo unspecified) | -5.37 |

| SMILES | cytotoxicity at 70.5 h [%] |
| --- | --- |
| Cc1cccc(C(=O)Nc2cccc3c2C(=O)NC3)n1 | -5.67 |
| CC(C)NC(=O)CCNC(=O)c1cc(F)ccc1NS(C)(=O)=O | 15.1 |
| CCOC(=O)c1nc(CN2CCC(NC(=O)C(C)C)CC2)cs1 | -3.69 |
| Cc1ccc(NS(C)(=O)=O)c(C(=O)NCCC(=O)NC(C)C)c1 | -6.46 |
| COc1ccc(N(C(=O)c2ccc(C)nc2)C(C)C)cc1F | 15.8 |
| Cc1ccnc(N2CCC(NCCOc3ccccc3)CC2)n1 | -4.28 |
| CC(C)(C)C(=O)NCC(=O)NC1CC(c2cccc(Cl)c2)C1 (stereo unspecified) | -1.37 |
| CS(=O)(=O)CCC(=O)NC1CC(c2cccc(Cl)c2)C1 (stereo unspecified) | 14.6 |
| Cc1cc(NCC(=O)N(C)CC(F)(F)F)c(C(N)=O)cc1F | 1.83 |
| O=C1CC(CNc2cncc(Cl)n2)c2ccccc2N1 (stereo unspecified) | -2.03 |
| Cc1ccc(N2CCCC(NC(=O)Cc3csc(C)n3)C2=O)cc1 (stereo unspecified) | -0.932 |
| Cc1cc(N2CCC(NCCOc3ccccc3)CC2)nc(C)n1 | 3.15 |
| O=C(Nc1ccccc1OC1CCOC1)c1ccon1 (stereo unspecified) | -1.12 |
| Cc1ncccc1C(=O)Nc1cccc2c1C(=O)NC2 | -2.21 |
| COCCNC(=O)c1cc(F)ccc1NS(C)(=O)=O | -1.48 |
| CC(c1nc(C2CC2)no1)N(C)Cc1ccc(C#N)cc1 (stereo unspecified) | -1.86 |
| CCOCc1ccccc1NC(=O)NCC(C)(O)c1ccsc1 (stereo unspecified) | -2.17 |
| CCN(CC(=O)NC)C(=O)Cc1csc(C(C)C)n1 | -1.76 |
| CCS(=O)(=O)c1ccc2c(c1)OCCCO2 | 0.078 |
| N#Cc1cccnc1NC1CCN(c2ccccc2OC(F)F)C1=O (stereo unspecified) | 17.8 |
| CS(=O)(=O)CCN(CC1CCCO1)C1CCCC1 (stereo unspecified) | 19.5 |
| CC(C)c1nnc2n1CCN(C(=O)c1ccc(OCC3CC3)nc1)C2 | 11 |
| COc1c(CNCC(O)COc2ccc3c(c2)OCO3)c(C)nn1C (stereo unspecified) | 14.9 |
| Nc1nccnc1C(=O)N1CCN(Cc2cccc3ccccc23)CC1 | 28 |
| CN(C)c1cc(C(=O)NCC2(c3cccc(F)c3)CCOCC2)ccn1 | -4.88 |

| SMILES | cytotoxicity at 70.5 h [%] |
| --- | --- |
| Cc1nc(CNCC(O)COc2ccc3c(c2)OCO3)cs1 (stereo unspecified) | 1.9 |
| Cn1cccc(NC(=O)COc2ccc(Br)cc2)c1=O | 21.8 |
| CN(C)S(=O)(=O)Nc1ccc(-n2nccc2C(F)(F)F)cc1 | 6.87 |
| Nc1nccnc1C(=O)N1CC(OCc2cccc3ccccc23)C1 | 9.66 |
| Cc1nnc2ccc(N3CCC4(CCOC4)C3)nn12 (stereo unspecified) | -3.17 |
| NS(=O)(=O)CCN1CCOC(c2ccsc2)C1 (stereo unspecified) | 1.05 |
| O=C1CCC(=O)N1CCN1CCOC(c2ccsc2)C1 (stereo unspecified) | 3.03 |
| Cn1cnn(Cc2c(F)cccc2Br)c1=O | 24.5 |
| NC(=O)N1CC(OCc2cccc3ccccc23)C1 | 2.87 |
| N#Cc1ccccc1N1CCC(Nc2nccnc2C#N)CC1 | 0.142 |
| CCS(=O)(=O)CCN(CC1CCCO1)C1CCCC1 (stereo unspecified) | -2.46 |
| Cc1cc(CN(C)Cc2ncc(-c3cccs3)o2)no1 | 0.203 |
| CCc1nc(CN(C)Cc2ncc(-c3cccs3)o2)cs1 | -1.61 |
| COC(=O)N1CCC(NC2CCSCC2)C1 (stereo unspecified) | 0.96 |
| Cc1csc(C2CCCCN2C(=O)CCn2cncn2)n1 (stereo unspecified) | 33.9 |
| CC(C)C(=O)NCCNC(=O)C(C)OCC(F)(F)F (stereo unspecified) | -8.9 |
| O=C(NCC(O)c1ccccc1C(F)(F)F)c1cccnc1 (stereo unspecified) | -11 |
| CCN(CC)Cc1ccc(C(=O)NC2CCc3ccccc32)o1 (stereo unspecified) | 21.6 |
| CC(=O)N1Cc2ccccc2CC1C(=O)Nc1ccc(C)cn1 (stereo unspecified) | -15.7 |
| CS(=O)(=O)N1CCN(c2cc(N3CCCC3CO)ncn2)CC1 (stereo unspecified) | -7.63 |
| O=C(CN1CCCC(c2ccn[nH]2)C1)N1CCCc2ccccc21 (stereo unspecified) | 15.3 |
| CN(C)CC(=O)N1CCN(c2cc(N3CCCC3CO)ncn2)CC1 (stereo unspecified) | -6.08 |
| CSc1nsc(NC(=O)N(C)Cc2ccc3c(c2)OCO3)n1 | -8.04 |
| COC(=O)c1ccc(CCn2cnc(C#N)n2)cc1 | 13.2 |
| Cc1cc(S(=O)(=O)N(CCO)C2CC2)ccc1F | -2.56 |

| SMILES | cytotoxicity at 70.5 h [%] |
| --- | --- |
| CS(=O)(=O)CC1(CNc2c(C#N)cnc3ccc(Cl)cc23)CC1 | -5.19 |
| CN(C)CCC1CCN(c2cc(N3CCCC3CO)ncn2)CC1 (stereo unspecified) | 11.7 |
| CCC1COCCN1C(=O)NCc1nccn1CC(C)C (stereo unspecified) | -15.6 |
| CCC1COCCN1C(=O)NCc1nccn1CCc1ccccc1 (stereo unspecified) | -5.72 |
| O=C(NCc1nccs1)N1CCOC(c2ccccc2Cl)C1 (stereo unspecified) | 10.9 |
| CN(Cc1cccc(OC(F)(F)F)c1)Cc1cnn(C)c1 | -12.4 |
| Cc1cc(C2CCCN(CCC(=O)N3CCc4ccccc43)C2)n[nH]1 (stereo unspecified) | -4.23 |
| CC(C)N(Cc1ccccn1)C(=O)CCOc1cccc(F)c1 | -4.61 |
| CCc1ccc(CCn2cnc(C#N)n2)cc1 | -7.83 |
| CN(C)C(=O)N1CCN(c2cc(N3CCCC3CO)ncn2)CC1 (stereo unspecified) | -4.25 |
| CC(SCC(=O)N(C)CC(=O)NC1CC1)c1cc(F)ccc1F (stereo unspecified) | 14.2 |
| Cc1nc(CN(CCS(C)(=O)=O)C(C)(C)C)no1 | 42.5 |
| O=C(COCC1CC1)Nc1ncccc1I | 2.42 |
| CCOCCN1CCN(c2ccc(CN(C)C)cn2)CC1 | -5.47 |
| COc1ccc(C(NCc2cccc(C#N)c2)C(C)C)cc1 (stereo unspecified) | 5.48 |
| O=C(COCC1CC1)Nc1ncccc1O | -6.89 |
| CC1CCN(C(=O)C(C)N2CCN(c3nccs3)CC2)CC1 (stereo unspecified) | -7 |
| Cc1cc(CN(C)C(=O)C2CC(c3cccc(F)c3)=NO2)no1 (stereo unspecified) | -10.1 |
| O=C(Nc1ccc2c(c1)C(=O)NC2)c1ccc(S(=O)(=O)C(F)(F)F)cc1 | -2.46 |
| CCCNC(=O)C1CCN(CC(O)c2ccccc2C(F)(F)F)CC1 (stereo unspecified) | 0.668 |
| CCOc1ncccc1NC(=O)N1CCC(n2cncn2)CC1 | -8.07 |
